In patent US20070082920A1, “NAD+-dependent DNA ligase inhibitors” (priority 2005, published 2007):

Assays:
[1] = tested on: Moraxella catterhalis ATCC 25238; assay: MIC, broth microdilution (CLSI), M. catarrhalis; type: cell-based
Procedure: (§1) The compounds of Formulas 1-VIII were evaluated as inhibitors of NAD+-dependent DNA ligase inhibitors. Their antimicrobial activity was evaluated against bacteria using the broth microdilution method as described by Clinical Laboratory Standards Institute (formerly NCCLS). Activity was assessed against the following bacterial strains: Staphylococcus aureus ATCC 29213, Streptococcus pneumoniae ATCC 49619, Escherichia coli ATCC 25922, E. coli CGSC 5633 (ToIC mutant), Haemophilus influenzae ATCC 49766, Streptococcus pyogenes ATCC 19615, Moraxella catterhalis ATCC 25238, Enterococcus faecalis ATCC 29212. The lowest concentration of compound which inhibited visual growth of each bacterium, the minimum inhibitory concentration (MIC), was determined.

[2] = tested on: Escherichia coli ATCC 25922; assay: MIC, broth microdilution (CLSI), E. coli ATCC 25922; type: cell-based
Procedure: as §1

[3] = tested on: E. coli CGSC 5633 (ToIC mutant); assay: MIC, broth microdilution (CLSI), E. coli CGSC 5633; type: cell-based, Escherichia coli; design: unit not given beside the values
Procedure: as §1

[4] = tested on: Enterococcus faecalis ATCC 29212; assay: MIC, broth microdilution (CLSI), E. faecalis; type: cell-based; design: unit not given here
Procedure: as §1

[5] = tested on: Streptococcus pyogenes ATCC 19615; assay: MIC, broth microdilution (CLSI), S. pyogenes; type: cell-based
Procedure: as §1

[6] = tested on: Staphylococcus aureus ATCC 29213; assay: MIC, broth microdilution (CLSI), S. aureus; type: cell-based; conditions: lowest concentration inhibiting visual growth
Procedure: as §1

[7] = Acute toxicity, Alamar blue cell viability, NIH 3T3; type: cell-based; conditions: mouse
Procedure: (§2) Acute toxicity was assessed against two mammalian cell lines, HepG2 (human hepatocyte) and NIH 3T3 (mouse fibroblast). Cell viability was measured by an in vitro assay using Alamar blue. The concentration of compound which inhibited 50% of the cell growth (LC50) was determined.

[8] = Acute toxicity, Alamar blue cell viability, HepG2; type: cell-based; conditions: human
Procedure: as §2

[9] = tested on: Streptococcus pneumoniae ATCC 49619; assay: MIC, broth microdilution (CLSI), S. pneumoniae; type: cell-based
Procedure: as §1

[10] = tested on: Haemophilus influenzae ATCC 49766; assay: MIC, broth microdilution (CLSI), H. influenzae; type: cell-based; design: unit not given beside the values
Procedure: as §1

Structure (SMILES) | MIC M. catarrhalis [1] | MIC E. coli ATCC 25922 [2] | MIC E. coli CGSC 5633 [3] | MIC E. faecalis [4] | MIC S. pyogenes [5] | MIC S. aureus ATCC 29213 [6] | CC50 [7] [µM] | CC50 [8] [µM] | MIC S. pneumoniae [9] | MIC H. influenzae [10]
COc1cc(CN(C)c2nc3nc(N)nc(N)c3c(C)c2Cc2ccccc2)cc(OC)c1 [II-a, 2,4-diamino-5-methyl-6-benzyl-7-[(3,5-dimethoxybenzyl)methylamino]-pyrido[2,3-d]pyrimidine] | 4 | >128 | <0.125 | <0.125 | 4 | 4 | 5.57 | 12.8 | 0.125 | >128
CCCCc1c(NCc2ccc(F)c(F)c2)nc2nc(N)nc(N)c2c1C [II-d] | 2 | 32 | <0.125 | 2 | 2 | 4 | 5.16 | 17.2 | 1 | 16
Cc1c(C(C)C)c(NCc2cc(F)cc(C(F)(F)F)c2)nc2nc(N)nc(N)c12 [II-f] | 4 | 128 | – | 2 | 8 | 8 | – | – | 8 | 32
Cc1c(C2CCCC2)c(NCc2ccc(F)c(F)c2)nc2nc(N)nc(N)c12 [II-g] | 1 | >128 | 2 | 4 | 4 | 4 | 2.67 | 16.4 | 4 | 16
COc1cc(CN(C)c2nc3nc(N)nc(N)c3c(C)c2C2CCCC2)cc(OC)c1 [II-h] | 1 | 32 | <0.125 | <0.125 | 1 | 4 | 3.26 | 17.5 | 0.5 | 4
Cc1cc(NCc2ccc(F)cc2)nc2nc(N)nc(N)c12 [III-a] | 8 | 32 | 0.25 | 4 | 2 | 32 | 8.14 | 24 | 64 | 2
Cc1cc(NCc2cc(F)cc(C(F)(F)F)c2)nc2nc(N)nc(N)c12 [III-b, 2,4-diamino-5-methyl-7-[(3-fluoro-5-trifluoromethylbenzyl)amino]-pyrido[2,3-d]pyrimidine] | 8 | 16 | <0.125 | 0.5 | 4 | 16 | 8.34 | 20.9 | 1 | 32
Cc1cc(NCc2ccc(C(F)(F)F)cc2)nc2nc(N)nc(N)c12 [III-c] | 8 | 16 | 0.25 | 4 | 4 | 16 | 11.2 | 22.8 | 4 | 16
Cc1cc(NCc2cc(C(F)(F)F)cc(C(F)(F)F)c2)nc2nc(N)nc(N)c12 [III-d] | 4 | 16 | 1 | 1 | 2 | 16 | 7.72 | 19.5 | 2 | 16
Cc1cc(NCc2ccc(Cl)c(C(F)(F)F)c2)nc2nc(N)nc(N)c12 [III-f] | 2 | 16 | <0.125 | 1 | 2 | 8 | 8.32 | 15.2 | 1 | 16
Cc1cc(NCc2cccc(C(F)(F)F)c2F)nc2nc(N)nc(N)c12 [III-g] | 4 | 16 | 0.5 | 2 | 4 | 16 | – | – | 2 | 32
